According to US12152038B2, “Vasopressin receptor antagonists and products and methods related thereto” (Neumora Therapeutics, Inc., priority 2017, dated 2024):
Counter-ions that a name gives are not always drawn.

molecular target: T1, human Arginine Vasopressin Receptor 1a (AVPR1a) (Homo sapiens, UniProt P37288); assay: Vasopressin V1a receptor antagonist assay (FLIPR calcium, CHO-AVPR1a cells); type: cell-based
T1 construct: expressed in transfected cells; host or cells: CHO (CHO-AVPR1a, kept under G418 selection)
Description: The purpose of this assay was to determine the inhibitory effect of synthesized compounds on the Vasopressin V1a receptor. The assay was performed in Chinese Hamster Ovary (CHO) cells expressing the human Arginine Vasopressin Receptor 1a (AVPR1a). Arginine Vasopressin (AVP) evokes an increase in intracellular calcium in CHO-AVPR1a cells which is measured in a fluorescence assay on the FLIPR^TETRA using calcium sensitive dyes. Test compounds were assessed for their ability to affect the magnitude of the response to AVP, with antagonists showing a concentration-dependent reduction in the AVP-mediated fluorescence. Compounds were tested in duplicate in a 10-point, 1:3 dilution series starting at a nominal concentration of 3 μM in the assay.
CHO-AVPR1a cells were maintained in routine culture in T175 Flasks at 37° C., 5% CO2. The growth medium consists of Ham's F12 media supplemented with 10% v/v fetal bovine serum, 1× non-essential amino acids, and 0.4 mg/ml Geneticin G418.
On day one, cells were harvested from T175 flasks when they are 80-90% confluent by first washing the cell monolayer with PBS and then dissociated using trypsin 0.05%/EDTA (3 mL for a T175 Flask). The flasks were incubated at room temperature until the cells detached. To the cell suspension, 10 ml of growth media was added and the cell density determined using the Vi-Cell automated cell counter. The cells were spun at 1000 rpm for 3 minutes, then the supernatant was carefully removed and discarded. The cell pellet was re-suspended at 6.0e^5 cells/ml in growth media. 25 μL of cells in growth media was dispensed into each well (15,000 cells per well) of a poly-D-lysine coated black, clear bottomed, 384-well plate. The plates were incubated at 37° C., 5% CO2 overnight.
At the start of each assay day, the potency of AVP was assessed and an EC80 concentration determined for subsequent compound profiling. Assays were performed using a two-step addition protocol on the FLIPR^TETRA; first addition of 5 μl of control or test compound at 10× final in assay buffer with 15 min incubation at 37° C., 5% CO2 followed by 10 μl of AVP at 6× final concentration in assay buffer. Changes in fluorescence were monitored for 3 min after both additions on the FLIPR^TETRA using 470-495 nm excitation and 515-575 nm emission wavelengths. The assay buffer consisted of HBSS (+Ca/+Mg) supplemented with 20 mM HEPES, and for the preparation of the AVP agonist only, 0.1% w/v bovine serum albumin. The assay was initiated by the removal of growth media from the cells and replacement with 45 μl of Calcium-6 dye (Molecular Devices) prepared at 1× in assay buffer. Cells were loaded with dye for 60-90 min at 37° C., 5% CO2 before initiation of the FLIPR^TETRA protocol. […] For compound profiling, test compounds were first serially diluted in DMSO (10-point curve, 1:3 dilutions) then diluted 33.3-fold in assay buffer prior to addition to the dye loaded cells on the FLIPR^TETRA. At the end of the incubation period, 10 μl of AVP in assay buffer containing 0.1% BSA was added at the previously determined EC80 concentration.
In-plate controls for the assay included balovaptan and PF-184563 concentration-response curves as reference V1a antagonists, and an AVP concentration-response curve to confirm the reproducibility of the EC80 used for the compound challenge.

T1 sequence (P37288 whole entry): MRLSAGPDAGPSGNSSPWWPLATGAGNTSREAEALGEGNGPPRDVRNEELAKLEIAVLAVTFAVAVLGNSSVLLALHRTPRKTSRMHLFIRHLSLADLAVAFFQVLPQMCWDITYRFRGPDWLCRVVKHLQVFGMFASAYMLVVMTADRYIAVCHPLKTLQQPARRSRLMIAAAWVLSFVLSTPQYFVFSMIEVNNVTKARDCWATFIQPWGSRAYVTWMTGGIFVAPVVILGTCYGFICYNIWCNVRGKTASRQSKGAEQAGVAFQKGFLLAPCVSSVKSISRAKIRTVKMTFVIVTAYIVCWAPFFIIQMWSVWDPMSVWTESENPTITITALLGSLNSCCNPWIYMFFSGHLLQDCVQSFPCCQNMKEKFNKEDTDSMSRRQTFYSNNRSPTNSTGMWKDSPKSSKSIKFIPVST

SMILES | IC50 [nM]
Cc1cc(N2CC3(CN(C(=O)N4CCOc5cc(Cl)ccc54)C3)C2)ncc1C#N [1-29] | < 100
O=C(N1CC2(C1)CN(c1ccc(C(F)(F)F)cn1)C2)N1CCOc2cc(Cl)ccc21 [1-31] | 100 to 500
O=C(N1CC2(C1)CN(c1cccc(CO)n1)C2)N1CCOc2cc(Cl)ccc21 [1-32] | 100 to 500
O=C(N1CC2(C1)CN(c1nccnc1F)C2)N1CCOc2cc(Cl)ccc21 [1-33] | < 100
O=C(N1CC2(C1)CN(c1ccncc1)C2)N1CCOc2cc(Cl)ccc21 [1-34] | ≥ 1000
O=C(N1CC2(C1)CN(c1ccnc(OC(F)F)c1)C2)N1CCOc2cc(Cl)ccc21 [1-35] | ≥ 1000
Cc1cc(N2CC3(CN(C(=O)N4CCOc5cc(Cl)ccc54)C3)C2)ccn1 [1-36] | ≥ 1000
Cc1cnc(N2CC3(CN(C(=O)N4CCOc5cc(Cl)ccc54)C3)C2)nc1 [1-37] | 100 to 500
Cc1cc(C)nc(N2CC3(CN(C(=O)N4CCOc5cc(Cl)ccc54)C3)C2)n1 [1-38] | < 100
O=C(N1CC2(C1)CN(c1ccc(F)cc1)C2)N1CCOc2cc(Cl)ccc21 [1-40] | 100 to 500
Cn1ccc2ncc(N3CC4(CN(C(=O)N5CCOc6cc(Cl)ccc65)C4)C3)cc21 [1-41] | 100 to 500
Cn1nccc1N1CC2(CN(C(=O)N3CCOc4cc(Cl)ccc43)C2)C1 [1-42] | 100 to 500
O=C(N1CC2(C1)CN(c1nccn3cncc13)C2)N1CCOc2cc(Cl)ccc21 [1-44] | < 100
Cc1ccc(N2CC3(CN(C(=O)N4CCOc5cc(Cl)ccc54)C3)C2)nc1F [1-46] | < 100
COc1ccnc(N2CC3(CN(C(=O)N4CCOc5cc(Cl)ccc54)C3)C2)n1 [1-47] | < 100
COc1cnc(N2CC3(CN(C(=O)N4CCOc5cc(Cl)ccc54)C3)C2)nc1 [1-48] | 100 to 500
O=C(N1CC2(C1)CN(c1ncc(F)cc1F)C2)N1CCOc2cc(Cl)ccc21 [1-50] | < 100
Cc1cc(F)cnc1N1CC2(CN(C(=O)N3CCOc4cc(Cl)ccc43)C2)C1 [1-52] | < 100
Cn1ccnc1N1CC2(CN(C(=O)N3CCOc4cc(Cl)ccc43)C2)C1 [1-54] | 100 to 500
CCC1COc2cc(Cl)ccc2N1C(=O)N1CC2(C1)CN(c1ccc(F)cn1)C2 (centres unmarked) [1-55] | < 100

SMILES | IC50 [nM]
CCC1COc2cc(F)ccc2N1C(=O)N1CC2(C1)CN(c1ccc(F)cn1)C2 (centres unmarked) [1-56] | < 100
CC1COc2cc(Cl)ccc2N1C(=O)N1CC2(C1)CN(c1ncccc1F)C2 (centres unmarked) [1-57] | < 100
CC1COc2cc(Cl)ccc2N1C(=O)N1CC2(C1)CN(c1cnccn1)C2 (centres unmarked) [1-58] | < 100
COc1ccc2c(c1)OCC(C)N2C(=O)N1CC2(C1)CN(c1ccc(F)cn1)C2 (centres unmarked) [1-59] | < 100
CC(C)(C)OC(=O)N1CC2(C1)CN(C(=O)N1CCOc3cc(Cl)ccc31)C2 [1-61] | 500 to 1000
CC1COc2cc(F)ccc2N1C(=O)N1CC2(C1)CN(c1cccnn1)C2 (centres unmarked) [1-62] | < 100
O=C(N1CC2(C1)CN(c1ccc(F)cn1)C2)N1CCOc2ccccc21 [1-63] | 100 to 500
CC1COc2cc(F)ccc2N1C(=O)N1CC2(C1)CN(c1cnccn1)C2 (centres unmarked) [1-65] | < 100
CC1COc2cc(F)ccc2N1C(=O)N1CC2(C1)CN(c1ccccn1)C2 (centres unmarked) [1-66] | < 100
CC1COc2cc(Cl)ccc2N1C(=O)N1CC2(C1)CN(c1ccc(F)cn1)C2 (centres unmarked) [1-73] | < 100
O=C(N1CC2(C1)CN(c1ccncn1)C2)N1CCOc2cc(Cl)ccc21 [1-74] | 100 to 500
O=C(N1CC2(C1)CN(c1ccc(F)cn1)C2)N1CCCS(=O)(=O)c2cc(Cl)ccc21 [1-75] | ≥ 1000
O=C(N1CC2(C1)CN(c1cc(C(F)F)ccn1)C2)N1CCOc2cc(Cl)ccc21 [1-80] | < 100
O=C(N1CC2(C1)CN(c1n[nH]c3ccccc13)C2)N1CCOc2cc(Cl)ccc21 [1-82] | < 100
O=C(N1CC2(CN(Cc3ccncc3)C2)C1)N1CCOc2cc(Cl)ccc21 [2-1, (7-chloro-2,3-dihydro-4H-benzo[b][1,4]oxazin-4-yl)(6-(pyridin-4-ylmethyl)-2,6-diazaspiro[3.3]heptan-2-yl)methanone] | ≥ 1000
O=C(N1CC2(CN(Cc3ccccn3)C2)C1)N1CCOc2cc(Cl)ccc21 [2-2] | ≥ 1000
O=C(N1CC2(CN(Cc3cccnc3)C2)C1)N1CCOc2cc(Cl)ccc21 [2-3] | ≥ 1000
CC(c1cccnc1)N1CC2(CN(C(=O)N3CCOc4cc(Cl)ccc43)C2)C1 (centres unmarked) [2-4] | ≥ 1000
O=C(N1CC2(CN(Cc3cnccn3)C2)C1)N1CCOc2cc(Cl)ccc21 [2-5] | ≥ 1000
O=C(N1CC2(CN(Cc3ccc(F)cn3)C2)C1)N1CCOc2cc(Cl)ccc21 [2-6] | ≥ 1000

SMILES | IC50 [nM]
Cc1cnnc(N2CC3(CN(C(=O)N4CCOc5cc(Cl)ccc54)C3)C2)c1 [3-1, (7-chloro-2,3-dihydro-4H-benzo[b][1,4]oxazin-4-yl)(6-(5-methylpyridazin-3-yl)-2,6-diazaspiro[3.3]heptan-2-yl)methanone] | < 100
O=C(N1CC2(C1)CN(c1ccn3ccnc3c1)C2)N1CCOc2cc(Cl)ccc21 [5-1, (7-chloro-2,3-dihydro-4H-benzo[b][1,4]oxazin-4-yl)(6-(imidazo[1,2-a]pyridin-7-yl)-2,6-diazaspiro[3.3]heptan-2-yl)methanone formate] | 100 to 500
Cc1nc(N2CC3(CN(C(=O)N4CCOc5cc(Cl)ccc54)C3)C2)no1 [7-1, (7-chloro-2,3-dihydro-4H-benzo[b][1,4]oxazin-4-yl)(6-(5-methyl-1,2,4-oxadiazol-3-yl)-2,6-diazaspiro[3.3]heptan-2-yl)methanone] | 100 to 500
COc1ccc(N2CC3(CN(C(=O)N4CCOc5cc(Cl)ccc54)C3)C2)cn1 [8-1, (7-chloro-2,3-dihydro-4H-benzo[b][1,4]oxazin-4-yl)(6-(6-methoxypyridin-3-yl)-2,6-diazaspiro[3.3]heptan-2-yl)methanone] | 100 to 500
O=C(N1CC2(C1)CN(c1ccc(F)cn1)C2)N1CCOc2ncccc21 [8-5] | ≥ 1000
O=C(N1CC2(C1)CN(c1ccc(F)cn1)C2)N1CCOc2ccncc21 [8-6] | ≥ 1000
CN1CCN(C(=O)N2CC3(C2)CN(c2ccc(F)cn2)C3)c2ccc(F)cc21 [8-8] | < 100
CN1CCCN(C(=O)N2CC3(C2)CN(c2ccc(F)cn2)C3)c2ccc(F)cc21 [8-10] | < 100
O=C(N1CC2(C1)CN(c1ccc(F)cn1)C2)N1CCSc2cc(Cl)ccc21 [8-15] | < 100
O=C(N1CC2(C1)CN(c1ccc(F)cn1)C2)N1CCS(=O)(=O)c2cc(Cl)ccc21 [8-17] | 100 to 500
CC1CN(C(=O)N2CC3(C2)CN(c2ccc(F)cn2)C3)c2ccc(F)cc2O1 (centres unmarked) [9-4] | < 100
O=C(N1CC2(C1)CN(c1ccc(F)cn1)C2)N1CCOc2c1ccc(F)c2F [9-5] | < 100
O=C(N1CC2(C1)CN(c1ccc(F)cn1)C2)N1CCCc2cc(Cl)ccc21 [9-8] | < 100
CC1(C)CCN(C(=O)N2CC3(C2)CN(c2ccc(F)cn2)C3)c2ccc(Cl)cc21 [9-9] | < 100
CS(=O)(=O)N1CC2(CN(C(=O)N3CCOc4cc(Cl)ccc43)C2)C1 [10-1, (7-chloro-2,3-dihydro-4H-benzo[b][1,4]oxazin-4-yl)(6-(methylsulfonyl)-2,6-diazaspiro[3.3]heptan-2-yl)methanone] | ≥ 1000
O=C(N1CC2(C1)CN(c1ccccn1)C2)N1CCC(O)c2cc(Cl)ccc21 (centres unmarked) [13-2] | < 100
O=C(N1CC2(C1)CN(c1ncccc1F)C2)N1CCC(O)c2cc(Cl)ccc21 (centres unmarked) [13-4] | < 100
O=C(N1CC2(C1)CN(c1ccc(F)cn1)C2)N1CCC(O)c2c1ccc(Cl)c2F (centres unmarked) [13-5] | < 100
CC1(O)CCN(C(=O)N2CC3(C2)CN(c2ccc(F)cn2)C3)c2ccc(Cl)cc21 (centres unmarked) [15-1, (6-chloro-4-hydroxy-4-methyl-3,4-dihydroquinolin-1(2H)-yl)(6-(5-fluoropyridin-2-yl)-2,6-diazaspiro[3.3]heptan-2-yl)methanone] | < 100
